Measurements from PubChem BioAssay AID1963838 (Molecular Pharmacology Branch, DTP, NCI, 2024).

Test system: 855422-203-R-J1-PDC complex spheroid viability
Test: Anticancer human tumor 855422-203-R-J1-PDC patient-derived bladder carcinoma cell line growth inhibition [POLQ]
Details: for IC50: curve of first compound; for viability, T/C: stronger effect = lower value
Method: Multicellular complex tumor spheroid response to Polymerase (POL) inhibitors (novobiocin, ART-558, RP6685) in combination with a variety of drugs and investigational agents in selected tumor cell lines
The POL inhibitors (novobiocin, ART-558, and RP6685) were evaluated both individually and in combination with standard of care and investigational anticancer small molecules within a complex spheroid model of solid tumors. . Complex spheroids include a stromal component modeled by human endothelial cells (HUVEC) and fibroblasts modeled by human mesenchymal stem cells (MSCs). The concentration ranges selected for each drug and investigational agent were based upon clinically achievable concentrations if the clinical Cmax of the agent was known.
Compounds. The drugs and investigational agents: novobiocin (NSC847541), ART-558 (NSC835418), RP-6685 (NSC848927), peposertib (NSC802822), ceralasertib (NSC780249), elimusertib (NSC800525), camonsertib (NSC841442), AZD-1390 (NSC803789), olaparib (NSC753686), talazoparib (NSC767125), rucaparib (NSC756644), sotorasib (NSC818433), MRTX-1133 (NSC836407), SN-38 (NSC673596), topotecan (NSC609699), epotoside (NSC141540), doxorubicin (NSC123127), gemcitabine (NSC613327), 5-fluorouracil (NSC19893), paclitaxel (NSC125973), vemurafenib (NSC761431), MSA-2 (NSC828583), SN-011 (NSC837082), adavosertib (NSC754352), prexasertib (NSC758257), carboplatin (NSC241240) and oxaliplatin (NSC266046), were obtained from the National Cancer Institute (NCI) Developmental Therapeutics Program Chemical Repository (21). The FDA-approved anticancer drug set is available from the Developmental Therapeutics Program at https://dtp.cancer.gov/organization/dscb/obtaining/. […] The stock solutions were prepared in dimethyl sulfoxide (DMSO, Sigma-Aldrich, St. Louis, MO, cat. D2650), except for the platinum compounds which were prepared in saline (Quality Biological, Gaithersburg, MD, cat. 114-055-101), at 800-fold the tested concentration and stored at -70 degrees C prior to their use. All drugs and investigational agents were tested over a range starting from a high concentration at or near the clinical Cmax and decreasing in half-log increments. If the clinical Cmax for an agent had not been determined, the highest concentration tested was 10 microM, except for SN-38, which was tested at a high concentration of 1 microM.
Cell Culture. All cells were maintained in an incubator at 37 degrees C and 5% CO2 with 95% humidity. The PDC lines were cultured according to standard operating procedures established by the NCI PDMR (https://pdmr.cancer.gov). Table 3 of the manuscript, lists the cell lines along with the number of the three cell types plated to form the mct-spheroids and media for tumor cell growth. After thawing, all PDC lines, except 997537-175-T-J1-PDC and 415267-285-R-J2-PDC, were cultured in Matrigel-coated flasks prepared with a working solution of 1X Ham's F-12 nutrient mix, without supplementation (Thermo Fisher Scientific, cat. 11765054), 100 U/mL penicillin-streptomycin (Thermo Fisher Scientific, cat. 15140122), and 2.5% Matrigel (Corning Inc., Corning, NY, cat. 354248) for the first three passages. The two PDC lines 997537-175-T-J1-PDC and 415267-285-R-J2-PDC were cultured on uncoated flasks. The 857933-349-R-J2-PDC line was cultured in 6C/Colon 1B media containing advanced DMEM/F-12 (Thermo Fisher Scientific, cat. 12634028), 10 mM HEPES (Thermo Fisher Scientific, cat. 15630080), 1X GlutaMAX supplement (Thermo Fisher Scientific, cat. 35050061), 0.1 mg/mL primocin (InvivoGen, San Diego, CA, cat. ant-pm-2), 10% defined fetal bovine serum, heat inactivated (HyClone Laboratories Inc., Logan, UT, cat. SH30070.03HI), 50% L-WRN conditioned media (ATCC, cat. CRL-3276), 1.25 mM N-Acetyl-L-cysteine (Sigma-Aldrich, cat. A9165), 10 mM nicotinamide (Sigma-Aldrich, cat. N0636), 1X B-27 supplement (Thermo Fisher Scientific, cat. 17504044), 1X N-2 supplement (Thermo Fisher Scientific, cat. […]

[1] = second compound 0.0316 µM, first compound 0.0316 µM
[2] = second compound 0.0316 µM, first compound 0.1 µM
[3] = second compound 0.0316 µM, first compound 0.316 µM
[4] = second compound 0.0316 µM, first compound 1 µM
[5] = second compound 0.0316 µM, first compound 3.16 µM
[6] = second compound 0.0316 µM, first compound 10 µM
[7] = second compound 0.1 µM, first compound 0.0316 µM
[8] = second compound 0.1 µM, first compound 0.1 µM
[9] = second compound 0.1 µM, first compound 0.316 µM
[10] = second compound 0.1 µM, first compound 1 µM
[11] = second compound 0.1 µM, first compound 3.16 µM
[12] = second compound 0.1 µM, first compound 10 µM
[13] = second compound 0.316 µM, first compound 0.0316 µM
[14] = second compound 0.316 µM, first compound 0.1 µM
[15] = second compound 0.316 µM, first compound 0.316 µM
[16] = second compound 0.316 µM, first compound 1 µM
[17] = second compound 0.316 µM, first compound 3.16 µM
[18] = second compound 0.316 µM, first compound 10 µM
[19] = second compound 1 µM, first compound 0.0316 µM
[20] = second compound 1 µM, first compound 0.1 µM
[21] = second compound 1 µM, first compound 0.316 µM
[22] = second compound 1 µM, first compound 1 µM
[23] = second compound 1 µM, first compound 3.16 µM
[24] = second compound 1 µM, first compound 10 µM
[25] = second compound 3.16 µM, first compound 0.0316 µM
[26] = second compound 3.16 µM, first compound 0.1 µM
[27] = second compound 3.16 µM, first compound 0.316 µM
[28] = second compound 3.16 µM, first compound 1 µM
[29] = second compound 3.16 µM, first compound 3.16 µM
[30] = second compound 3.16 µM, first compound 10 µM
[31] = second compound 10 µM, first compound 0.0316 µM
[32] = second compound 10 µM, first compound 0.1 µM
[33] = second compound 10 µM, first compound 0.316 µM
[34] = second compound 10 µM, first compound 1 µM
[35] = second compound 10 µM, first compound 3.16 µM
[36] = second compound 10 µM, first compound 10 µM
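Also: spheroids exposed to compounds for seven days before readout.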

With `C=CC(=O)N1CCN(c2nc(=O)n(-c3c(C)ccnc3C(C)C)c3nc(-c4c(O)cccc4F)c(F)cc23)C(C)C1` (centres undefined) + COC1C(OC(N)=O)C(O)C(Oc2ccc3c(O)c(NC(=O)c4ccc(O)c(CC=C(C)C)c4)c(=O)oc3c2C)OC1(C)C the IC50 (second compound 0.0316 µM) was over 10000 nM, the IC50 (second compound 0.1 µM) was over 10000 nM and the IC50 (second compound 0.316 µM) was over 10000 nM. It also gave an IC50 (second compound 1 µM) of over 10000 nM, an IC50 (second compound 3.16 µM) of over 10000 nM and an IC50 (second compound 10 µM) of over 10000 nM. For the same compound, the viability, T/C [1] was 110%, the viability, T/C [2] was 106% and the viability, T/C [3] was 106%. For the same compound, the viability, T/C [4] was 111%, the viability, T/C [5] was 123% and the viability, T/C [6] was 120%. The viability, T/C [7] was 95%, the viability, T/C [8] was 111% and the viability, T/C [9] was 108%. For the same compound, the viability, T/C [10] was 123%, the viability, T/C [11] was 123% and the viability, T/C [12] was 116%. The viability, T/C [13] was 111%, the viability, T/C [14] was 123% and the viability, T/C [15] was 111%. The viability, T/C [16] was 114%, the viability, T/C [17] was 128% and the viability, T/C [18] was 114%. For the same compound, the viability, T/C [19] was 119%, the viability, T/C [20] was 120% and the viability, T/C [21] was 114%. It also gave a viability, T/C [22] of 119%, a viability, T/C [23] of 121% and a viability, T/C [24] of 129%. For the same compound, the viability, T/C [25] was 116%, the viability, T/C [26] was 108% and the viability, T/C [27] was 108%. It also gave a viability, T/C [28] of 113%, a viability, T/C [29] of 121% and a viability, T/C [30] of 128%. It also gave a viability, T/C [31] of 109%, a viability, T/C [32] of 111% and a viability, T/C [33] of 106%. The viability, T/C [34] was 103%, the viability, T/C [35] was 122% and the viability, T/C [36] was 111%.
Compound `CC1COCCN1c1cc(C2(O)CC3CCC(C2)O3)c2cnn(-c3ccn[nH]3)c2n1` (centres undefined) + COC1C(OC(N)=O)C(O)C(Oc2ccc3c(O)c(NC(=O)c4ccc(O)c(CC=C(C)C)c4)c(=O)oc3c2C)OC1(C)C has an IC50 (second compound 0.0316 µM) of 113 nM, an IC50 (second compound 0.1 µM) of 84.4 nM and an IC50 (second compound 0.316 µM) of 106 nM. The IC50 (second compound 1 µM) was 107 nM, the IC50 (second compound 3.16 µM) was 96.7 nM and the IC50 (second compound 10 µM) was 87.8 nM. The viability, T/C [1] was 94.3%, the viability, T/C [2] was 54.2% and the viability, T/C [3] was 14.5%. The viability, T/C [4] was 8.78%, the viability, T/C [5] was 6.63% and the viability, T/C [6] was 3.87%. It also gave a viability, T/C [7] of 84.8%, a viability, T/C [8] of 44.1% and a viability, T/C [9] of 13.4%. For the same compound, the viability, T/C [10] was 9.17%, the viability, T/C [11] was 6.55% and the viability, T/C [12] was 4.3%. The viability, T/C [13] was 99.6%, the viability, T/C [14] was 52% and the viability, T/C [15] was 18.9%. For the same compound, the viability, T/C [16] was 10.2%, the viability, T/C [17] was 8.4% and the viability, T/C [18] was 3.49%. The viability, T/C [19] was 109%, the viability, T/C [20] was 52.2% and the viability, T/C [21] was 12.7%. For the same compound, the viability, T/C [22] was 8.94%, the viability, T/C [23] was 7.59% and the viability, T/C [24] was 4.06%. The viability, T/C [25] was 112%, the viability, T/C [26] was 48.2% and the viability, T/C [27] was 14.7%. The viability, T/C [28] was 8.35%, the viability, T/C [29] was 7.58% and the viability, T/C [30] was 3.81%. It also gave a viability, T/C [31] of 112%, a viability, T/C [32] of 42% and a viability, T/C [33] of 15.8%. The viability, T/C [34] was 8.17%, the viability, T/C [35] was 7.6% and the viability, T/C [36] was 4.01%.
